According to PubChem BioAssay AID1259407 (Chemical Carcinogenesis Research Information System (CCRIS), 2018):
Activity calls are given as the source filed them. How the calls were made is not given here.

Test system: CCRIS mutagenicity, Ames/micronucleus/aberration tests
Assay: CCRIS mutagenicity studies

## Cc1ccc(N)cc1O
Test System: AMES SALMONELLA TYPHIMURIUM, Strain/Indicator: TA97, Metabolic Activation: HAMSTER, LIVER, S-9, AROCLOR 1254 (10%), Method: PREINCUBATION
  mutagenic call: active; positive
Test System: AMES SALMONELLA TYPHIMURIUM, Strain/Indicator: TA97, Metabolic Activation: NONE, Method: PREINCUBATION
  mutagenic call: inactive; negative
Test System: AMES SALMONELLA TYPHIMURIUM, Strain/Indicator: TA97, Metabolic Activation: RAT, LIVER, S-9, AROCLOR 1254 (10%), Method: PREINCUBATION
  mutagenic call: active; positive
Test System: AMES SALMONELLA TYPHIMURIUM, Strain/Indicator: TA98, Metabolic Activation: HAMSTER LIVER S-9, AROCLOR 1254, Method: STANDARD PLATE
  mutagenic call: inactive; negative
Test System: AMES SALMONELLA TYPHIMURIUM, Strain/Indicator: TA98, Metabolic Activation: HAMSTER, LIVER, S-9, AROCLOR 1254 (10%), Method: PREINCUBATION
  mutagenic call: active; positive
Test System: AMES SALMONELLA TYPHIMURIUM, Strain/Indicator: TA98, Metabolic Activation: NONE, Method: PREINCUBATION
  mutagenic call: inactive; negative
Test System: AMES SALMONELLA TYPHIMURIUM, Strain/Indicator: TA98, Metabolic Activation: NONE, Method: STANDARD PLATE
  mutagenic call: inactive; negative
Test System: AMES SALMONELLA TYPHIMURIUM, Strain/Indicator: TA98, Metabolic Activation: RAT LIVER S-9, AROCLOR 1254, Method: STANDARD PLATE
  mutagenic call: inactive; negative
Test System: AMES SALMONELLA TYPHIMURIUM, Strain/Indicator: TA98, Metabolic Activation: RAT, LIVER, S-9, AROCLOR 1254 (10%), Method: PREINCUBATION
  mutagenic call: active; positive
Test System: AMES SALMONELLA TYPHIMURIUM, Strain/Indicator: TA100, Metabolic Activation: HAMSTER LIVER S-9, AROCLOR 1254, Method: STANDARD PLATE
  mutagenic call: inactive; negative
Test System: AMES SALMONELLA TYPHIMURIUM, Strain/Indicator: TA100, Metabolic Activation: HAMSTER, LIVER, S-9, AROCLOR 1254 (10%), Method: PREINCUBATION
  mutagenic call: active; positive
Test System: AMES SALMONELLA TYPHIMURIUM, Strain/Indicator: TA100, Metabolic Activation: NONE, Method: PREINCUBATION
  mutagenic call: inactive; negative
Test System: AMES SALMONELLA TYPHIMURIUM, Strain/Indicator: TA100, Metabolic Activation: NONE, Method: STANDARD PLATE
  mutagenic call: inactive; negative
Test System: AMES SALMONELLA TYPHIMURIUM, Strain/Indicator: TA100, Metabolic Activation: RAT LIVER S-9, AROCLOR 1254, Method: STANDARD PLATE
  mutagenic call: inactive; negative
Test System: AMES SALMONELLA TYPHIMURIUM, Strain/Indicator: TA100, Metabolic Activation: RAT, LIVER, S-9, AROCLOR 1254 (10%), Method: PREINCUBATION
  mutagenic call: active; positive
Test System: AMES SALMONELLA TYPHIMURIUM, Strain/Indicator: TA102, Metabolic Activation: HAMSTER LIVER S-9, AROCLOR 1254, Method: STANDARD PLATE
  mutagenic call: inactive; negative
Test System: AMES SALMONELLA TYPHIMURIUM, Strain/Indicator: TA102, Metabolic Activation: NONE, Method: STANDARD PLATE
  mutagenic call: inactive; negative
Test System: AMES SALMONELLA TYPHIMURIUM, Strain/Indicator: TA102, Metabolic Activation: RAT LIVER S-9, AROCLOR 1254, Method: STANDARD PLATE
  mutagenic call: inactive; negative
Test System: AMES SALMONELLA TYPHIMURIUM, Strain/Indicator: TA1535, Metabolic Activation: HAMSTER LIVER S-9, AROCLOR 1254, Method: STANDARD PLATE
  mutagenic call: inactive; negative
Test System: AMES SALMONELLA TYPHIMURIUM, Strain/Indicator: TA1535, Metabolic Activation: HAMSTER, LIVER, S-9, AROCLOR 1254 (10%), Method: PREINCUBATION
  mutagenic call: inactive; negative
Test System: AMES SALMONELLA TYPHIMURIUM, Strain/Indicator: TA1535, Metabolic Activation: NONE, Method: PREINCUBATION
  mutagenic call: inactive; negative
Test System: AMES SALMONELLA TYPHIMURIUM, Strain/Indicator: TA1535, Metabolic Activation: NONE, Method: STANDARD PLATE
  mutagenic call: inactive; negative
Test System: AMES SALMONELLA TYPHIMURIUM, Strain/Indicator: TA1535, Metabolic Activation: RAT LIVER S-9, AROCLOR 1254, Method: STANDARD PLATE
  mutagenic call: inactive; negative
Test System: AMES SALMONELLA TYPHIMURIUM, Strain/Indicator: TA1535, Metabolic Activation: RAT, LIVER, S-9, AROCLOR 1254 (10%), Method: PREINCUBATION
  mutagenic call: inactive; negative
Test System: AMES SALMONELLA TYPHIMURIUM, Strain/Indicator: TA1537, Metabolic Activation: HAMSTER LIVER S-9, AROCLOR 1254, Method: STANDARD PLATE
  mutagenic call: inactive; negative
Test System: AMES SALMONELLA TYPHIMURIUM, Strain/Indicator: TA1537, Metabolic Activation: NONE, Method: STANDARD PLATE
  mutagenic call: inactive; negative
Test System: AMES SALMONELLA TYPHIMURIUM, Strain/Indicator: TA1537, Metabolic Activation: RAT LIVER S-9, AROCLOR 1254, Method: STANDARD PLATE
  mutagenic call: inactive; negative
Test System: Mouse lymphoma, Strain/Indicator: L5178Y (tk+/tk-), Metabolic Activation: None, Method: Suspension/plate
  mutagenic call: active; positive
Test System: Mouse lymphoma, Strain/Indicator: L5178Y (tk+/tk-), Metabolic Activation: Rat, Liver, S-9, Aroclor 1254, Method: Suspension/plate
  mutagenic call: inactive; negative
